Test results reported in ChEMBL document CHEMBL1201862, “PubChem BioAssay data set” (2004).
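Tested at 5 concentrations; 48 h exposure; 96-well plates; endpoints linearly interpolated, else capped at highest concentration. At the GI50, growth is halved.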 The source made the active and inactive calls. No stated cut-off is given here; in the data, active = GI50 up to about 1.1 µM and inactive = higher.

How the values were obtained:
Assay in all cases: growth of human tumour cells (NCI), 48 h
U-251 = tested on: U-251
SF-268 = tested on: SF-268
SF-539 = tested on: SF-539
MDA-MB-231 = tested on: MDA-MB-231
CAKI-1 = tested on: CAKI-1
M14 = tested on: M14
NCI-H226 = tested on: NCI-H226
MCF7 = tested on: MCF7
DU-145 = tested on: DU-145
KM12 = tested on: KM12
A498 = tested on: A498
A549 = tested on: A549
SNB-75 = tested on: SNB-75
NCI-H460 = tested on: NCI-H460
RPMI-8226 = tested on: RPMI-8226
RXF 393 = tested on: RXF 393
HL-60 = tested on: HL-60
MDA-N = tested on: MDA-N
CCRF-CEM = tested on: CCRF-CEM
NCI/ADR-RES = tested on: NCI/ADR-RES

Row | Structure (SMILES) | GI50 (U-251) | GI50 (SF-268) | GI50 (SF-539) | GI50 (MDA-MB-231) | GI50 (CAKI-1) | GI50 (M14) | GI50 (NCI-H226) | GI50 (MCF7) | GI50 (DU-145) | GI50 (KM12) | GI50 (A498) | GI50 (A549) | GI50 (SNB-75) | GI50 (NCI-H460) | GI50 (RPMI-8226) | GI50 (RXF 393) | GI50 (HL-60) | GI50 (MDA-N) | GI50 (CCRF-CEM) | GI50 (NCI/ADR-RES)
1 | O=c1cc(-c2ccccc2)nc(-n2[nH]c3c(c2=O)CCCC3)[nH]1 | 2.55 µM (inactive) | 2.7 µM (inactive) | 4.98 µM (inactive) | 2.92 µM (inactive) | 7.18 µM (inactive) | 5.68 µM (inactive) | 3.82 µM (inactive) | 3.37 µM (inactive) | 1.57 µM (inactive) | 13.3 µM (inactive) | 17.6 µM (inactive) | 4.35 µM (inactive) | 3.13 µM (inactive) | 1.08 µM (active) | 4.17 µM (inactive) | 0.656 µM (active) | 2.73 µM (inactive) | 7.29 µM (inactive) | 0.769 µM (active) | 
2 | C=C1C(=O)OC2/C=C(\COC(C)=O)CCC(OC(C)=O)C3=CC(OC3=O)C12 (stereo not drawn) | 12.2 µM (inactive) | 22.3 µM (inactive) | 6.64 µM (inactive) | 19.1 µM (inactive) | 3.03 µM (inactive) | 2.91 µM (inactive) | 23.9 µM (inactive) | 3.69 µM (inactive) | 36.1 µM (inactive) | 12.7 µM (inactive) | 16 µM (inactive) | 20 µM (inactive) | 15.9 µM (inactive) | 19.5 µM (inactive) | 3.53 µM (inactive) | 1.59 µM (inactive) | 2.23 µM (inactive) | > 10 µM (inactive) | 1.01 µM (active) | 
3 | CC1CCC2C(C)C(OC(=O)CCC(=O)O)OC3OC4(C)CCC1C32OO4 (stereo not drawn) | 2.98 µM (inactive) | 16.7 µM (inactive) | 11 µM (inactive) | > 100 µM (inactive) | 12.1 µM (inactive) | 17.2 µM (inactive) |  | 4.5 µM (inactive) | 21.4 µM (inactive) | 1.33 µM (inactive) | 27.2 µM (inactive) | 11.9 µM (inactive) | 19.3 µM (inactive) | 7.31 µM (inactive) | 0.246 µM (active) |  | 0.427 µM (active) | 2.65 µM (inactive) | 3.78 µM (inactive) | 4.62 µM (inactive)
4 | COC(=O)C1(Cc2ccccc2)Cc2ccccc2C1=O (stereo not drawn) | 27.7 µM (inactive) | 70.8 µM (inactive) | > 100 µM (inactive) | 83.6 µM (inactive) | 83 µM (inactive) | 32.5 µM (inactive) | 35.6 µM (inactive) | 42.1 µM (inactive) | 83.4 µM (inactive) | 27.7 µM (inactive) |  | 32.9 µM (inactive) | 42.7 µM (inactive) | 46 µM (inactive) | 35 µM (inactive) |  | 19.7 µM (inactive) | 32.1 µM (inactive) | 35.8 µM (inactive) | 25.7 µM (inactive)
5 | CC1=C(C(=O)Nc2ccccc2)C(c2ccc(C3C(C(=O)Nc4ccccc4)=C(C)NC(C)=C3C(=O)Nc3ccccc3)cc2)C(C(=O)Nc2ccccc2)=C(C)N1 | 1.49 µM (inactive) | 2.2 µM (inactive) | 3.56 µM (inactive) | 2.8 µM (inactive) | 4.02 µM (inactive) | 2.5 µM (inactive) | 3.96 µM (inactive) | 2.86 µM (inactive) | > 10 µM (inactive) | 2.09 µM (inactive) | 8.99 µM (inactive) | 8.05 µM (inactive) | 8.2 µM (inactive) | 2.67 µM (inactive) | 2.61 µM (inactive) | 1.91 µM (inactive) | 2.43 µM (inactive) | 3.23 µM (inactive) | 1.58 µM (inactive) | 
6 | CC(=O)OC12c3ccccc3C(c3ccccc31)C1C(=O)N(N=C(C)C)C(=O)C12 (stereo not drawn) | > 100 µM (inactive) | > 100 µM (inactive) | > 100 µM (inactive) | > 100 µM (inactive) | > 100 µM (inactive) | > 100 µM (inactive) | > 100 µM (inactive) | > 100 µM (inactive) | > 100 µM (inactive) | > 100 µM (inactive) |  | > 100 µM (inactive) | 51.9 µM (inactive) |  | > 100 µM (inactive) | > 100 µM (inactive) | > 100 µM (inactive) | > 100 µM (inactive) | > 100 µM (inactive) | > 100 µM (inactive)
7 | CC(=O)/C(=C/N1CC(=O)NC1=S)C(=O)Nc1ccccc1C | > 100 µM (inactive) | > 100 µM (inactive) | > 100 µM (inactive) | > 100 µM (inactive) | > 100 µM (inactive) | > 100 µM (inactive) | > 10 µM (inactive) |  | > 100 µM (inactive) | > 100 µM (inactive) | > 100 µM (inactive) | > 100 µM (inactive) | > 100 µM (inactive) | > 100 µM (inactive) |  | > 100 µM (inactive) | > 100 µM (inactive) | > 100 µM (inactive) |  | > 100 µM (inactive)
